# Assay results reported in US20020076693A1, “Novel cell surface receptor for HIV retroviruses, therapeutic and diagnostic uses” (priority 1997, published 2002).
# Several values for one entry are separate records, joined by “and”; a condition that tells them apart may be missing. Identical values can stand only once.
# Legend:
# VSV/HIV = assay type: cell-based
# [1] = system: HIV-1 pseudotyped Mo-MLV virus; assay: Infection of CEM cells by HIV-1 pseudotyped Mo-MLV virus (p24); conditions: p24 at 48 hours p.i., AZT 5 μM, TASP 5 μM
# Procedure: CEM cells (2×10^5) were infected with the HIV-1 pseudoryped Mo-MLV virus (Experimental procedure) at 95 ng of p24/ml, in the absence (histogram Control) or presence of different additions (as indicated). The infection was monitored by the production of p24, which was measured in the culture supernatant at 48 hours p.i. The mean±SD of duplicate samples is given. Treatment of cells with the different antibodies was as in FIG. 6 +L. For a control of infection, cells were pretreated with 5 μM AZT before infection.
# Hela cells were cotransfected by electroporation with plasmids pNL4-3 defective in env gene (Borman et al., 1995) and pE4070A expressing amphotrope envelope glycoproteins of Mo-MLV (Battini et al., 1996). Electroporation (Schwartz et al., 1996) was performed at 200 V, 960 μF, using a 4 mm wide cuvettes in a BIO-Rad Gene Pulser. The pseudotyped virus was recovered from the culture supernatant after 48 hours of culturing.
# HIV-1 Lai = assay: HIV entry into HeLa P4 / P4-C5 cells (β-galactosidase activity), HIV-1 Lai; assay type: cell-based
# SIVmac = SIVmac entry into HeLa cells (β-galactosidase); assay type: cell-based, SIV; conditions: β-galactosidase at 48 hours
# HIV-1 Ada-M = HIV-1 Ada-M entry into HeLa P4-C5 cells (β-galactosidase); assay type: cell-based; conditions: HeLa P4-C5, β-galactosidase at 48 hours
# Procedure: HeLa cells (P4-C5) were treated (incubation at 37° C., 30 min) with AZT (5 μM), (α-CD4 mAb CBT4 (5 μg/ml) before infection with the different HIV isolates in order to obtain the background β-galactosidase activity compared to untreated cells (Control). During the same time, the different HIV isolates were treated (incubation at room temperature, 15 min) with 1, 5, and 10 μg/ml of heparin before addition to untreated cells. The b-galactosidase activity was assayed at 48 hours post-infection as a measure of HIV entry (3 +L7).
# HIV-1 JRCSF = assay: HIV entry into HeLa P4-C5 cells (β-galactosidase), HIV-1 JRCSF; assay type: cell-based; conditions: HIV-1 JRCSF; heparin 1, 5, 10 μg/ml
# HIV-2 ROD = assay: HIV entry into HeLa P4-C5 cells (β-galactosidase), HIV-2 ROD; assay type: cell-based; conditions: heparin 1, 5, 10 μg/ml
# HIV-1 Bal = assay: HIV entry into HeLa P4-C5 cells (β-galactosidase), HIV-1 Ba-L; assay type: cell-based; conditions: HIV-1 Ba-L; heparin; mAb a-V3 5 μg/ml
# [2] = system: HIV-1 AZT resistant, Saquinavir resistant, Nevirapine resistant; assay: Entry of HIV-1 isolates resistant to antiviral drugs into HeLa cells (β-galactosidase); assay type: cell-based; conditions: heparin 5 mg/ml
# Procedure: HIV entry and replication, results in the activation of the HIV LTR, leading to the expression of the lacZ gene. Therefore, at 24 and 48 hours post-infection, the β-galactosidase activity could be measured in cell extracts directly. Consequently, this latter technique could be used to monitor HIV entry into cells. The HIV dose used corresponded to the amount of virus containing 20-40 ng/ml of p24.
# In these experiments, the background values of the β-galactosidase activity were assesed by the samples incubated with the a-CD4 mAb. Furthermore, the effect of heparin (5 mg/ml) was investigated.
# [3] = system: V3 loop-BPs (nucleolin, PHAP II, PHAP I); assay: BIAcore biosensor binding to immobilized V3 loop-BPs; design: species or system human; conditions: for equilibrium affinity constant Ka: binding to the V3 loop-BPs; for Ka (equilibrium affinity constant) / ka (association rate constant) / kd (dissociation rate constant): binding protein(s) V3 loop-BPs, BIAcore
# V3 loop-BPs [4] = assay: ELISA binding of proteins to coated V3 loop-BPs; design: species or system human; conditions: gp120 1 ng/ml, gp41 2 ng/ml, histone H3
# Procedure: This is an ELISA-type experiment using the purified preparation of the V3 loop-BPs which was as described in FIG. 2 +L. The purified preparation of the V3 loop-BPs at different concentrations (12;5 to 200 ng/ml; abscissa) was coated to the plate before incubation with either gp120 (at 1 ng/ml; ), gp41 (at 2 ng/ml;), or histone H3 (1 μg/ml;). […] As a control mAb, we used mAb OKT4A specific for CD4. The abscissa gives the concentration of V3 loop-BPs in ng/ml. The ordinate gives the optical density (OD) values measured at 450 nm as an indicator of reactivity. An OD value less than 0.2 was considered as not significant. mAb OKT4A at 1 mg/ml gave an OD value of 0.20 when used in wells preincubated with either gp120, gp41, or histone H3. Rabbit antiserum against CXCR4 at dilutions as low as 1:200 generated an OD value of 0.15.
# The resulting absorbance was measured at 450 nm.
# CD4 = CD4 (Homo sapiens, UniProt P01730); assay: BIAcore biosensor binding to soluble CD4; conditions: binding protein soluble recombinant CD4, BIAcore
# V3 loop-BPs [5] = assay: Inhibition of 5[Kψ(CH2N)PR]-TASP binding to the V3 loop-BPs (biosensor); design: species or system human; conditions: read-out: IC50 for the inhibition of 5[Kψ(CH2N)PR]-TASP binding to the V3 loop-BPs, increasing concentrations of gp120 HIV-1 Lai
Compound,equilibrium affinity constant Ka [3] [M⁻¹],Ka (equilibrium affinity constant) [3] [M⁻¹],ka (association rate constant) [3],kd (dissociation rate constant) [3],Ka (equilibrium affinity constant) (CD4) [M⁻¹],ka (association rate constant) (CD4),kd (dissociation rate constant) (CD4),further results
"Cc1cn([C@H]2C[C@H](N=[N+]=[N-])[C@@H](CO)O2)c(=O)[nH]c1=O [AZT, reference compound]",–,–,–,–,–,–,–,effect on VSV-HIV pseudotyped virus entry and replication (VSV/HIV): inhibited; effect on infection by HIV-1 pseudotyped Mo-MLV virus [1]: inhibited; inhibition of HIV infection monitored by the production of p24 (HIV-1 Lai; AZT 5 μM): more than 99%
Heparin [reference compound],–,–,–,–,–,–,–,"effect on SIVmac entry (SIVmac): inhibits; effect on HIV-1 Ada-M entry (HIV-1 Ada-M): inhibits; effect on viral entry (β-galactosidase activity at 48 hours post-infection) (HIV-1 Lai; HIV-1 LAI, heparin 1, 5, 10 μg/ml, mAb a-V3 5 μg/ml): inhibits; effect on viral entry (β-galactosidase activity at 48 hours post-infection) (HIV-1 JRCSF): no significant effect; effect on viral entry (β-galactosidase activity at 48 hours post-infection) (HIV-2 ROD): inhibits; effect on viral entry (β-galactosidase activity at 48 hours post-infection) (HIV-1 Bal): no significant effect; effect on entry of drug-resistant HIV-1 isolates [2]: drastically inhibited"
"NCTRPNNNRKSIRIQRGPGRAFVTIGKIGNMRQAHCNIS [V3 loop-Lai, synthetic V3 loop peptide of T-cell tropic HIV-1 Lai]",5.1e+06,–,–,–,–,–,–,–
"NCTRPNNNTRKSIHIGPGRAFYTGEIIGDIRQAHCNLS [V3 loop-Ba-L, synthetic V3 loop peptide of macrophage-tropic HIV-1 Ba-L]",1.5e+06,–,–,–,–,–,–,–
gp120 HIV-1 Lai: recombinant external envelope glycoprotein of HIV-1 Lai,2.1e+08,2.1e+08,4.40 × 10^5 M^−1S^−1,2.10 × 10^−3 S^−1,1.08e+09,5.88 × 10^5 M^−1S^−1,54.50 × 10^−3 S^−1,binding to the purified V3 loop-BPs in ELISA (V3 loop-BPs [4]): bind in a dose-dependent manner; IC50 (V3 loop-BPs [5]): ~3 nM
gp120 HIV-1 MN: recombinant gp120 of HIV-1 MN,4.3e+08,4.3e+08,1.90 × 10^5 M^−1S^−1,0.44 × 10^−3 S^−1,7.7e+08,2.98 × 10^5 M^−1S^−1,38.60 × 10^−3 S^−1,–
gp120 HIV-1 SF2 2/3: nonglycosylated form of gp120 of HIV-1 SF2 (Env 2-3),1.6e+08,1.6e+08,3.80 × 10^5 M^−1S^−1,2.40 × 10^−3 S^−1,–,–,–,–
gp120 HIV-1 SF2: recombinant gp120 of HIV-1 SF2 produced in CHO cells,2.3e+09,2.32e+09,0.65 × 10^5 M^−1S^−1,0.028 × 10^−3 S^−1 and 0.03 × 10^−3 S^−1,2.1e+08,11.50 × 10^5 M^−1S^−1,5.60 × 10^−3 S^−1,–
